The values below come from PubChem BioAssay AID588641 (Sanford-Burnham Center for Chemical Genomics, 2011).

The target in the experiment is alkaline phosphatase, placental type (human). Put plainly: inhibitors of placental alkaline phosphatase – biochemical, human PLAP isozyme, set 2, selectivity assay for mouse IAP inhibitor project, SAR follow-up (AID 588641). To be noted: purified human placental alkaline phosphatase, enzyme activity.

Molecules are shown by their SMILES. Activity calls are given as the source filed them. The rule behind the calls is not given here.

A word on the IC50: it is the concentration needed to halve the response being measured. On to `COc1ccc(NC(=O)CCCNS(=O)(=O)c2ccc3[nH]c(=O)oc3c2)cc1OC`, for which the IC50 is > 100 µM (inactive).

Regarding `CCc1ccc(NC(=O)C2CCCN(S(=O)(=O)c3ccc4c(c3)oc(=O)n4C)C2)cc1` (configuration not stated), the IC50 is > 100 µM (inactive).

With `Cc1ccc(CNC(=O)CCNS(=O)(=O)c2ccc3[nH]c(=O)oc3c2)cc1`, the IC50 was > 100 µM (inactive).

On to `Cc1ccc(C)c(CNC(=O)C2CCCN(S(=O)(=O)c3ccc4[nH]c(=O)oc4c3)C2)c1` (configuration not stated), for which the IC50 is > 100 µM (inactive).

Regarding `COc1ccc(CNC(=O)CCCNS(=O)(=O)c2ccc3[nH]c(=O)oc3c2)cc1OC`, the IC50 was > 100 µM (inactive).

In the case of `COc1cccc(NC(=O)CCNS(=O)(=O)c2ccc3c(c2)oc(=O)n3C)c1`, the IC50 was > 100 µM (inactive).

For the compound `N#Cc1cccc(NS(=O)(=O)c2ccc3[nH]c(=O)oc3c2)c1`, the IC50 is > 100 µM (inactive).

In the case of `O=C(NCc1ccccc1)C1CCCN(S(=O)(=O)c2ccc3[nH]c(=O)oc3c2)C1` (configuration not stated), the IC50 was > 100 µM (inactive).

On to `CC(C)(C)c1ccc(/C=N/NC(=O)c2cc(O)c(O)c(O)c2)cc1`, for which the IC50 is 60.8 µM.

Regarding `COc1ccc(CNC(=O)C2CCCN(S(=O)(=O)c3ccc4[nH]c(=O)oc4c3)C2)cc1` (configuration not stated), the IC50 was > 100 µM (inactive).

Take `COc1ccc(CCNC(=O)CCCNS(=O)(=O)c2ccc3[nH]c(=O)oc3c2)cc1OC`: the IC50 is > 100 µM (inactive).

For `O=C(CNS(=O)(=O)c1ccc2[nH]c(=O)oc2c1)NCCc1ccc2c(c1)OCO2`, the IC50 is > 100 µM (inactive).

Take `O=C(N/N=C/c1cccc(Cl)c1Cl)c1cc(O)c(O)c(O)c1`: the IC50 is > 100 µM (inactive).

`Cc1cc(NC(=O)CCNS(=O)(=O)c2ccc3[nH]c(=O)oc3c2)ccc1Br`: the IC50 is > 100 µM (inactive).

On to `Cc1ccccc1CNC(=O)C1CCCN(S(=O)(=O)c2ccc3[nH]c(=O)oc3c2)C1` (configuration not stated), for which the IC50 was > 100 µM (inactive).

For the compound `O=C(N/N=C/c1ccc(F)cc1F)c1ccc(O)cc1`, the IC50 was > 100 µM (inactive).

On to `Cc1ccc(CNC(=O)C2CCCN(S(=O)(=O)c3ccc4[nH]c(=O)oc4c3)C2)cc1` (configuration not stated), for which the IC50 is > 100 µM (inactive).

Consider `COc1ccccc1CNC(=O)CCCNS(=O)(=O)c1ccc2[nH]c(=O)oc2c1`, for which the IC50 was > 100 µM (inactive).

`O=C(CCNS(=O)(=O)c1ccc2[nH]c(=O)oc2c1)NCCc1ccc2c(c1)OCO2`: the IC50 is > 100 µM (inactive).

As for `O=C(N/N=C/c1c(F)cccc1F)c1ccc(O)cc1`, the IC50 is > 100 µM (inactive).

In the case of `Cc1ccccc1CNC(=O)CCCNS(=O)(=O)c1ccc2[nH]c(=O)oc2c1`, the IC50 was > 100 µM (inactive).

As for `O=C(CCNS(=O)(=O)c1ccc2[nH]c(=O)oc2c1)NCCc1ccc(O)cc1`, the IC50 was > 100 µM (inactive).

Turning to `COc1ccc(C(=O)N/N=C/c2ccccc2F)cc1`, the IC50 is > 100 µM (inactive).

In the case of `COc1cc(C(=O)N/N=C/c2c(F)cccc2Cl)cc(OC)c1OC`, the IC50 was > 100 µM (inactive).

Consider `COc1cccc(C(=O)N/N=C/c2ccccc2F)c1`, for which the IC50 was > 100 µM (inactive).

`N#Cc1ccc(NC(=O)CNS(=O)(=O)c2ccc3[nH]c(=O)oc3c2)cc1`: the IC50 is > 100 µM (inactive).

In the case of `O=C(N/N=C/c1ccc(Cl)c(Cl)c1)c1cc(O)c(O)c(O)c1`, the IC50 was > 100 µM (inactive).

As to `O=C(CCS(=O)(=O)Nc1ccc2[nH]c(=O)oc2c1)NCc1cccc(F)c1`, the IC50 was > 100 µM (inactive).

In the case of `COc1ccc(CNC(=O)CCNS(=O)(=O)c2ccc3c(c2)CCC3)c(OC)c1`, the IC50 is > 100 µM (inactive).

As to `O=C(CCNS(=O)(=O)c1ccc2[nH]c(=O)oc2c1)NCc1ccc(Cl)cc1`, the IC50 is > 100 µM (inactive).

For the compound `O=C(NCc1ccc2c(c1)OCO2)C1CCCN(S(=O)(=O)c2ccc3[nH]c(=O)oc3c2)C1` (configuration not stated), the IC50 was > 100 µM (inactive).

Take `COc1ccc(CNC(=O)CCNS(=O)(=O)c2ccc3[nH]c(=O)oc3c2)c(OC)c1`: the IC50 was > 100 µM (inactive).
